Common to all, as to test: Competitive isoTOP-ABPP, cell lysates
What all share (assay type): binding

One assay addresses XPO1 C528 (O14980) (Homo sapiens, UniProt O14980). The settings on record: 500 μM.
Another assay has as its target DCUN1D1 C115 (Q96GG9) (Homo sapiens, UniProt Q96GG9). The following applies: 500 μM, invitro.
The next assay has as its target UBE2L3 C86 (P68036) (Homo sapiens, UniProt P68036). The settings on record: 500 μM.
Another assay deals with T1, PDIA6 C190 (Q15084) (Homo sapiens, UniProt Q15084).
T1 sequence (Q15084 20-440): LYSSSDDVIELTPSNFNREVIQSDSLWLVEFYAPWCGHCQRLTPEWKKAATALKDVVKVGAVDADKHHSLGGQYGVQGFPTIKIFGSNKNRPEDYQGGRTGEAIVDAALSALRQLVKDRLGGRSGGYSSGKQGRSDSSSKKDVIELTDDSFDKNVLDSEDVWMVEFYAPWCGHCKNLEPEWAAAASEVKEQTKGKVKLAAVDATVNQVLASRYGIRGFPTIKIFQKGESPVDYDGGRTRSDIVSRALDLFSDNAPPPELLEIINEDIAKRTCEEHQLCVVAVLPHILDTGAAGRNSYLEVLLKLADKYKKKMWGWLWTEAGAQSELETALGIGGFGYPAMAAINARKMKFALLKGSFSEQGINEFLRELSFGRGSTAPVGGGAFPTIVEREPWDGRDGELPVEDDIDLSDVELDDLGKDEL
The settings on record: 500 μM.

A further assay deals with STAT3 C259 (P40763) (Homo sapiens, UniProt P40763). The settings on record: 500 μM.
A further assay concerns the target SMARCC2 C145 (Q8TAQ2) (Homo sapiens, UniProt Q8TAQ2). The following applies: 500 μM; for isoTOP-ABPP ratio Q8TAQ2_C145: 231.
A further assay concerns the target GNB2L1 C182 (P63244) (Homo sapiens, UniProt P63244). The following applies: 500 μM.
For another assay, the target named is SAMHD1 C522 (Q9Y3Z3) (Homo sapiens, UniProt Q9Y3Z3). The settings on record: 500 μM; for isoTOP-ABPP ratio, Q9Y3Z3_C522: invitro, 231.
Another assay deals with GSTP1 C48 (P09211) (Homo sapiens, UniProt P09211). The following applies: 500 μM.
The next assay has as its target T2, MGMT C150 (P16455) (Homo sapiens, UniProt P16455).
T2 sequence (P16455 1-207): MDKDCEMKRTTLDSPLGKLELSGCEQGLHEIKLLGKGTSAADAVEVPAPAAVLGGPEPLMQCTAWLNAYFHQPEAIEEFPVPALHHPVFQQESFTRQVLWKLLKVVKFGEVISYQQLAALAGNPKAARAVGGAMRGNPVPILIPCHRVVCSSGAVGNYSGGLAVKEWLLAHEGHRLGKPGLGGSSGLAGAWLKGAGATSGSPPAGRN
The following applies: 500 μM, invitro, ramos.

The next assay addresses XPO1 C34 (O14980) (Homo sapiens, UniProt O14980). The following applies: 500 μM.

In the case of `O=C(CCl)Nc1cc(C(F)(F)F)cc(C(F)(F)F)c1` [compound 3], the “R value (DMSO/fragment)” value is listed as 20.0 on XPO1 C528 (O14980) (in vitro, MDA-MB-231); 20.0 at XPO1 C528 (O14980) (invitro, ramos); 5.5 at DCUN1D1 C115 (Q96GG9) (ramos); 1.2 on UBE2L3 C86 (P68036) (in vitro, MDA-MB-231); 3.0 on UBE2L3 C86 (P68036) (invitro, ramos); 19.9 on PDIA6 C190 (Q15084) (in vitro, MDA-MB-231). For the same molecule, the “R value (DMSO/fragment)” value was found to be 13.1 on PDIA6 C190 (Q15084) (invitro, ramos); 2.5 on STAT3 C259 (P40763) (in vitro, MDA-MB-231); 2.9 on STAT3 C259 (P40763) (invitro, ramos); 9.7 at SMARCC2 C145 (Q8TAQ2) (in vitro, MDA-MB-231); 6.6 at SMARCC2 C145 (Q8TAQ2) (invitro, ramos); 20.0 on GNB2L1 C182 (P63244) (in vitro, MDA-MB-231). Further, the “R value (DMSO/fragment)” value was found to be 4.7 on GNB2L1 C182 (P63244) (invitro, ramos); 2.6 at SAMHD1 C522 (Q9Y3Z3) (in vitro, MDA-MB-231); 2.9 at GSTP1 C48 (P09211) (in vitro, MDA-MB-231); 1.7 at GSTP1 C48 (P09211) (invitro, ramos); 17.1 at MGMT C150 (P16455); 1.4 at XPO1 C34 (O14980) (in vitro, MDA-MB-231). Besides, the “R value (DMSO/fragment)” value on XPO1 C34 (O14980) (invitro, ramos) was determined as 1.6.
`O=C(CCl)N1CCN(S(=O)(=O)c2ccccc2F)CC1` [compound 10]: at XPO1 C528 (O14980) (invitro, 231), the “isoTOP-ABPP ratio O14980_C528” value amounted to 0.8. The results for the “isoTOP-ABPP ratio, Q96GG9_C115” value on DCUN1D1 C115 (Q96GG9) (231) and on DCUN1D1 C115 (Q96GG9) (ramos) were 1.3 and 1.0, respectively. Also, the “isoTOP-ABPP ratio, P68036_C86” value on UBE2L3 C86 (P68036) (invitro, 231) was determined as 1.1; on UBE2L3 C86 (P68036) (invitro, ramos), 0.4. For the same molecule, the “isoTOP-ABPP ratio, Q15084_C190” value on PDIA6 C190 (Q15084) (invitro, ramos) was 3.3. The “isoTOP-ABPP ratio, P40763_C259” value on STAT3 C259 (P40763) (invitro, 231) is on record as 3.4. In addition, the “isoTOP-ABPP ratio Q8TAQ2_C145” value on SMARCC2 C145 (Q8TAQ2) (invitro) is on record as 4.2. Also, the “isoTOP-ABPP ratio, P63244_C182” value worked out at 1.1 on GNB2L1 C182 (P63244) (invitro, 231) and 1.1 at GNB2L1 C182 (P63244) (invitro, ramos). Also, the “isoTOP-ABPP ratio, Q9Y3Z3_C522” value on SAMHD1 C522 (Q9Y3Z3) worked out at 1.8. Besides, the “isoTOP-ABPP ratio, P09211_C48” value on GSTP1 C48 (P09211) (invitro, 231) is on record as 1.4; at GSTP1 C48 (P09211) (invitro, ramos) it was 0.8. The “isoTOP-ABPP ratio, P16455_C150” value at MGMT C150 (P16455) is listed as 20.0. In addition, the “isoTOP-ABPP ratio, O14980_C34” value is given as 1.2 on XPO1 C34 (O14980) (invitro, 231) and 0.7 at XPO1 C34 (O14980) (invitro, ramos).
Regarding `Cn1cc(S(=O)(=O)N2CCOCC2)cc1C(=O)NC(=O)CCl` [compound 11], the “isoTOP-ABPP ratio O14980_C528” value on XPO1 C528 (O14980) (invitro, 231) came out at 1.0; at XPO1 C528 (O14980) (invitro, ramos), 0.7. Moreover, the “isoTOP-ABPP ratio, Q96GG9_C115” value on DCUN1D1 C115 (Q96GG9) (ramos) worked out at 0.9. In addition, the “isoTOP-ABPP ratio, P68036_C86” value at UBE2L3 C86 (P68036) (invitro, ramos) was 1.0. Besides, the “isoTOP-ABPP ratio, Q15084_C190” value was found to be 20.0 on PDIA6 C190 (Q15084) (invitro, 231) and 20.0 on PDIA6 C190 (Q15084) (invitro, ramos). Also, the “isoTOP-ABPP ratio, P40763_C259” value came out at 20.0 on STAT3 C259 (P40763) (invitro, 231) and 20.0 at STAT3 C259 (P40763) (invitro, ramos). Further, the “isoTOP-ABPP ratio Q8TAQ2_C145” value on SMARCC2 C145 (Q8TAQ2) (invitro) came to 20.0. Moreover, the “isoTOP-ABPP ratio, P63244_C182” value was 1.0 at GNB2L1 C182 (P63244) (invitro, 231) and 1.1 on GNB2L1 C182 (P63244) (invitro, ramos). Moreover, the “isoTOP-ABPP ratio, Q9Y3Z3_C522” value on SAMHD1 C522 (Q9Y3Z3) is reported as 2.1. The “isoTOP-ABPP ratio, P09211_C48” value is on record as 1.7 on GSTP1 C48 (P09211) (invitro, 231) and 1.1 on GSTP1 C48 (P09211) (invitro, ramos). Further, the “isoTOP-ABPP ratio, P16455_C150” value at MGMT C150 (P16455) was determined as 20.0. The “isoTOP-ABPP ratio, O14980_C34” value amounted to 1.2 at XPO1 C34 (O14980) (invitro, 231) and 1.0 on XPO1 C34 (O14980) (invitro, ramos).

For the origin of these results see patent publication US10670605B2, “Cysteine reactive probes and uses thereof” (The Scripps Research Institute, priority 2015, dated 2020).
